According to article PMC11406233 (Proceedings of the National Academy of Sciences of the …, 2024):
Like-named read-outs stand apart in the source and are kept apart here.

Legend:
[1] = tested on: SCoV2^WK521WT + SCoV2^WK521A191T; format: cell-based, SARS-CoV-2
rgSCoV2E166V = format: cell-based, SARS-CoV-2
rgSCoV2L50F/E166V = format: cell-based, SARS-CoV-2
SCoV2^WK521A191T [2] = tested on: SCoV2^WK521A191T; design: species or system SARS-CoV-2; conditions: read-out: EC50 from cell-based assay
rgSCoV2WT = assay: microbe, parasite or virus in culture; format: cell-based; conditions: Severe acute respiratory syndrome coronavirus 2, VeroE6/TMPRSS2, read-out: EC50±SD
SCoV2^WK521A191T [3] = tested on: SCoV2^WK521A191T; design: species or system SARS-CoV-2; conditions: read-out: EC50 from cell-based assay; remark: listed apart in the source
M^proE166V [4] = target: T1, M^proE166V (Severe acute respiratory syndrome coronavirus 2, UniProt P0DTD1, E3429V); format: binding, SARS-CoV-2
SCoV2^WK521E166V = format: cell-based, SARS-CoV-2
[5] = tested on: SCoV2^WK521WT + SCoV2^WK521E166V; format: cell-based, SARS-CoV-2
M^proE166V [6] = target: T1, M^proE166V; format: biochemical, SARS-CoV-2

SMILES | Pattern of replicability in CSRA [1] | EC50 (rgSCoV2E166V) | EC50 (rgSCoV2L50F/E166V) | EC50 (SCoV2^WK521A191T [2]) | EC50 (rgSCoV2WT) | EC50 (SCoV2^WK521A191T [3]) | Complex formation with MproE166V in crystallization (M^proE166V [4]) | Difference in the EC50 values of NIR and TKB245 (SCoV2^WK521E166V) | SCoV2^WK521E166V population [5] | SCoV2^WK521WT population [5] | Factor of greater binding affinity to MproE166V than nirmatrelvir (M^proE166V [6])
COc1cccc2[nH]c(C(=O)N[C@@H](CC(C)C)C(=O)N[C@@H](C[C@@H]3CCNC3=O)C(=O)c3nc4ccccc4s3)cc12 [5h] | SCoV2^WK521A191T predominated SCoV2^WK521 throughout all the concentrations tested | 13.5 ± 0.15 µM | 13.4 ± 0.48 µM | 35 ± 0.08 µM | 13.5 µM | > 100 µM |  |  |  |  | 
CC(C)(C)[C@H](NC(=O)C(F)(F)F)C(=O)N1C[C@H]2[C@@H]([C@H]1C(=O)N[C@@H](C[C@@H]1CCNC1=O)C(=O)c1nc3c(F)cccc3s1)C2(C)C [TKB245] |  | 6.6 µM | 11.4 µM |  | 0.78 µM |  | TKB245 binds to M^proE166V | 207 fold | 100% | 100% | 6.8
CC(C)(C)[C@H](NC(=O)C(F)(F)F)C(=O)N1C[C@H]2[C@@H]([C@H]1C(=O)N[C@H](C#N)C[C@@H]1CCNC1=O)C2(C)C [nirmatrelvir, reference compound] |  |  |  |  | 4.4 µM |  |  |  |  |  | 
